From patent US20250320206A1, “STAT6 DEGRADERS” (Gilead Sciences, Inc., priority 2024, published 2025)

Legend:
[1] = test system: Eotaxin-3 release in human whole blood stimulated with IL-4; test: Human Whole Blood Eotaxin-3 Assay (IL-4 stimulated eotaxin-3 release); format: cell-based; details: IL-4 stimulation, 48 h, values given for compounds with >80% Emax, geometric mean
Outline: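 Eotaxin-3 (CCL26) release measured by MSD kit in plasma supernatant after 48 h IL-4 stimulation ([…]) of human whole blood. Compounds added in triplicate 4-fold dilutions 2 h before stimulation; 0.5% DMSO final, 37° C, 5% CO2.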

[2] = molecular target: T1, STAT6 (Homo sapiens, UniProt P42226); test: Stat6 Degrader Assay (HiBiT based, HeLa LgBiT clone 4.14); format: cell-based; details: HeLa LgBiT clone 4.14 HiBiT-STAT6, 4-24 h incubation; values given for compounds with >80% Emax; geometric mean; read-out: STAT6 degradation DC50
T1 construct: These cells express endogenous STAT6; host or cells: HeLa LgBiT clone 4.14
T1 sequence (P42226 1-847): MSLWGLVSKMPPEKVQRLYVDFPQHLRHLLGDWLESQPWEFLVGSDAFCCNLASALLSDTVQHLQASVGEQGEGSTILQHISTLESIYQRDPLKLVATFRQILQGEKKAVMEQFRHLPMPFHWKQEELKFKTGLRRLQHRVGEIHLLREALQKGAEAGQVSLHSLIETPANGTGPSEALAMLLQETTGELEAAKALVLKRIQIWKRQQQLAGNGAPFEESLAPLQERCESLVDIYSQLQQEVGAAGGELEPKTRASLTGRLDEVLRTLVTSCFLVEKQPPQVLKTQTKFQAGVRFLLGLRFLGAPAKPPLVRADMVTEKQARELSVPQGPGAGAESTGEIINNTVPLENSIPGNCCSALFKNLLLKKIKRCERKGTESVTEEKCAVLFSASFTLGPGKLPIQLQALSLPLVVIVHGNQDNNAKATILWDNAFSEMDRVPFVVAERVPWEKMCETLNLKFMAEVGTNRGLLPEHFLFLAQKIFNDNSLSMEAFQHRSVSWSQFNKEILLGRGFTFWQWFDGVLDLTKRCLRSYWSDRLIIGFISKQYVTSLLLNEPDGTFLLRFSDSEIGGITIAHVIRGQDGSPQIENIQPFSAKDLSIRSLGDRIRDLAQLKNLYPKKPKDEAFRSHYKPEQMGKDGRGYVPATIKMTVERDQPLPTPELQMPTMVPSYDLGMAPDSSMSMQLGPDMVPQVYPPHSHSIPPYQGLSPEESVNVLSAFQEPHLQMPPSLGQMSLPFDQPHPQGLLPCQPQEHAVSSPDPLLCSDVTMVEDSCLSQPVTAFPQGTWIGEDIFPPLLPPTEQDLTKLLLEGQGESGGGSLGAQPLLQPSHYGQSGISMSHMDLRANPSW
Outline: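 Luminescence from HiBiT-STAT6 complementing stably expressed LgBiT in HeLa clone 4.14 reports remaining STAT6 protein. Cells (5000/well) exposed to compound for 4-24 h at 37° C; read 0.5 h after Nano-Glo addition. 100% degradation window set with 50 μM terfenadine; percent degradation plotted against concentration.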

## Cc1cc(C(=O)N2CCC(CN3CCN(Cc4ccc5c(c4)C4(CC4)C(=O)N5C4CCC(=O)NC4=O)C[C@@H]3C)CC2)cc(F)c1C1=CCN([C@@H](C)c2cc3c(-n4cc(F)c(N)c(F)c4=O)ccnc3n2C)CC1 (stereo partly drawn) [Example 3u121, 3-(5′-(((S)-4-((1-(4-(1-((S)-1-(4-(4-amino-3,5-difluoro-2-oxopyridin-1 (2H)-yl)-1-methyl-1H-pyrrolo[2,3-b]pyridin-2-yl)ethyl)-1,2,3,6-tetrahydropyridin-4-yl)-3-fluoro-5-methyl-benzoyl)piperidin-4-yl)methyl)-3-methylpiperazin-1-yl)methyl)-2′-oxospiro[cyclopropane-1,3′-indolin]-1′-yl)piperidine-2,6-dione]
[1]
  EC50: 2 nM
[2]
  DC50: 2.5 nM

## CNc1ccn(-c2ccnc3c2cc([C@H](C)N2CC=C(c4c(C)cc(C(=O)N5CCC(CN6CCN(c7cc8c(cc7F)n(C7CCC(=O)NC7=O)c(=O)n8C)CC6)CC5)cc4F)CC2)n3C)c(=O)n1 (stereo partly drawn) [Example 3u256, 3-(6-fluoro-5-(4-((1-(3-fluoro-5-methyl-4-(1-((S)-1-(1-methyl-4-(4-(methylamino)-2-oxopyrimidin-1 (2H)-yl)-1H-pyrrolo[2,3-b]pyridin-2-yl)ethyl)-1,2,3,6-tetrahydropyridin-4-yl)benzoyl)piperidin-4-yl)methyl)piperazin-1-yl)-3-methyl-2-oxo-2,3-dihydro-1H-benzo[d]imidazol-1-yl)piperidine-2,6-dione]
[1]
  EC50: 0.8 nM
[2]
  DC50: 2.5 nM

## CNc1ccn(-c2ccnc3c2cc([C@H](C)N2CC=C(c4c(C)cc(C(=O)N5CCC(CN6CCN(Cc7ccc8c(c7)C(C)(C)C(=O)N8[C@H]7CCC(=O)NC7=O)C[C@@H]6C)CC5)cc4F)CC2)n3C)c(=O)c1 (single isomer, unassigned) [Example 3u176]
[1]
  EC50: 9.8 nM
[2]
  DC50: 2.3 nM

## Cc1cc(C(=O)N2CCC(CN3CCN(Cc4cc5c(cc4F)n(C4CCC(=O)NC4=O)c(=O)n5C)CC3)CC2)cc(F)c1C1=CCN([C@@H](C)c2cc3c(-n4ccc5c(c4=O)CCN5)ccnc3n2C)CC1 (stereo partly drawn) [Example 3u74, 3-(6-fluoro-5-((4-((1-(3-fluoro-5-methyl-4-(1-((S)-1-(1-methyl-4-(4-oxo-1,2,3,4-tetrahydro-5H-pyrrolo[3,2-c]pyridin-5-yl)-1H-pyrrolo[2,3-b]pyridin-2-yl)ethyl)-1,2,3,6-tetrahydro-pyridin-4-yl)benzoyl)piperidin-4-yl)methyl)piperazin-1-yl)methyl)-3-methyl-2-oxo-2,3-dihydro-1H-benzo[d]imidazol-1-yl)piperidine-2,6-dione]
[1]
  EC50: 1.1 nM
[2]
  DC50: 0.6 nM

## CNc1cc(=O)n(-c2ccnc3c2cc([C@H](C)N2CC=C(c4c(F)cc(C(=O)N5CCC(CN6CCN(Cc7ccc8c(c7)n(C7CC7)c(=O)n8[C@@H]7CCC(=O)NC7=O)C[C@@H]6C)CC5)cc4F)CC2)n3C)cc1F (single isomer, unassigned) [Example 3u130]
[1]
  EC50: 1.8 nM
[2]
  DC50: 1.3 nM

## CNc1cc(=O)n(-c2ccnc3c2cc(CN2CC=C(c4c(F)cc(C(=O)N5CCC(CN6CCN(Cc7ccc8c(c7)n(C)c(=O)n8[C@@H]7CCC(=O)NC7=O)C[C@@H]6C)CC5)cc4F)CC2)n3C)cc1F (single isomer, unassigned) [Example 3u55]
[1]
  EC50: 3.1 nM
[2]
  DC50: 7.6 nM

## CNc1cc(=O)n(-c2ccnc3c2cc(CN2CC=C(c4c(F)cc(C(=O)N5CCC(CN6CCN(Cc7ccc8c(c7)n(C)c(=O)n8C7CCC(=O)NC7=O)C[C@@H]6C)CC5)cc4F)CC2)n3C)cc1F (stereo partly drawn) [Example 3u54, 3-(5-(((S)-4-((1-(3,5-difluoro-4-(1-((4-(5-fluoro-4-(methylamino)-2-oxopyridin-1 (2H)-yl)-1-methyl-1H-pyrrolo[2,3-b]pyridin-2-yl)methyl)-1,2,3,6-tetrahydropyridin-4-yl)benzoyl)piperidin-4-yl)methyl)-3-methylpiperazin-1-yl)methyl)-3-methyl-2-oxo-2,3-dihydro-1H-benzo[d]imidazol-1-yl)piperidine-2,6-dione]
[1]
  EC50: 2.7 nM
[2]
  DC50: 12 nM

## CNc1cc(=O)n(-c2ccnc3c2cc([C@H](C)N2CC=C(c4c(C)cc(C(=O)N5CCC(CN6CCN(c7ccc8c(c7)C7(CC7)C(=O)N8C7CCC(=O)NC7=O)C[C@H]6C)CC5)cc4F)CC2)n3C)cc1F (stereo partly drawn) [Example 3u295, 3-(5′-((R)-4-((1-(3-fluoro-4-(1-((S)-1-(4-(5-fluoro-4-(methylamino)-2-oxopyridin-1 (2H)-yl)-1-methyl-1H-pyrrolo[2,3-b]pyridin-2-yl)ethyl)-1,2,3,6-tetrahydropyridin-4-yl)-5-methylbenzoyl)piperidin-4-yl)methyl)-3-methylpiperazin-1-yl)-2′-oxospiro[cyclopropane-1,3′-indolin]-1′-yl)piperidine-2,6-dione]
[1]
  EC50: 18.9 nM
[2]
  DC50: 4.5 nM

## CNc1ccn(-c2ccnc3c2cc(CN2CCC(c4c(F)cc(C(=O)N5CCC(CN6CCN(Cc7ccc8c(c7)n(C)c(=O)n8C7CCC(=O)NC7=O)C[C@@H]6C)CC5)cc4F)CC2)n3C)c(=O)c1 (stereo partly drawn) [Example 3u19, 3-(5-(((S)-4-((1-(3,5-difluoro-4-(1-((1-methyl-4-(4-(methylamino)-2-oxopyridin-1 (2H)-yl)-1H-pyrrolo[2,3-b]pyridin-2-yl)methyl)piperidin-4-yl)benzoyl)piperidin-4-yl)methyl)-3-methyl-piperazin-1-yl)methyl)-3-methyl-2-oxo-2,3-dihydro-1H-benzo[d]imidazol-1-yl)piperidine-2,6-dione]
[1]
  EC50: 0.3 nM
[2]
  DC50: 0.7 nM

## CNc1ccn(-c2ccnc3c2cc([C@H](C)N2CC=C(c4c(C)cc(C(=O)N5CCC(CN6CCN(Cc7cc8c(cc7F)n(C7CCC(=O)NC7=O)c(=O)n8C7CC7)C[C@@H]6C)CC5)cc4F)CC2)n3C)c(=O)c1 (stereo partly drawn) [Example 3u166, 3-(3-cyclopropyl-6-fluoro-5-(((S)-4-((1-(3-fluoro-5-methyl-4-(1-((S)-1-(1-methyl-4-(4-(methylamino)-2-oxopyridin-1 (2H)-yl)-1H-pyrrolo[2,3-b]pyridin-2-yl)ethyl)-1,2,3,6-tetrahydropyridin-4-yl)benzoyl)piperidin-4-yl)methyl)-3-methylpiperazin-1-yl)methyl)-2-oxo-2,3-dihydro-1H-benzo[d]imidazol-1-yl)piperidine-2,6-dione]
[1]
  EC50: 1.3 nM
[2]
  DC50: 1.1 nM

## CNc1ccn(-c2ccnc3c2cc(CN2CCC(c4c(F)cc(C(=O)N5CCC(CN6CCN(Cc7ccc8c(c7)n(C7CC7)c(=O)n8C7CCC(=O)NC7=O)C[C@@H]6C)CC5)cc4F)CC2)n3C)c(=O)c1 (stereo partly drawn) [Example 3u216, 3-(3-cyclopropyl-5-(((S)-4-((1-(3,5-difluoro-4-(1-((1-methyl-4-(4-(methylamino)-2-oxopyridin-1 (2H)-yl)-1H-pyrrolo[2,3-b]pyridin-2-yl)methyl)piperidin-4-yl)benzoyl)piperidin-4-yl)-methyl)-3-methylpiperazin-1-yl)methyl)-2-oxo-2,3-dihydro-1H-benzo[d]imidazol-1-yl)piperidine-2,6-dione]
[1]
  EC50: 1.5 nM
[2]
  DC50: 3.5 nM

## CNc1ccn(-c2ccnc3c2cc(CN2CC=C(c4c(C)cc(C(=O)N(C)c5ccc(C6CCN(Cc7ccc8c(c7)C(C)(C)C(=O)N8[C@H]7CCC(=O)NC7=O)CC6)cc5)cc4F)CC2)n3C)c(=O)c1 (single isomer, unassigned) [Example 3u229]
[1]
  EC50: 1.6 nM
[2]
  DC50: 0.3 nM

## CNc1cc(=O)n(-c2ccnc3c2cc([C@H](C)N2CC=C(c4c(C)cc(C(=O)N5CCC(CN6CCN(Cc7ccc8c(c7)C7(CC7)C(=O)N8[C@@H]7CCC(=O)NC7=O)C[C@@H]6C)CC5)cc4F)CC2)n3C)cc1F (single isomer, unassigned) [Example 3u100]
[1]
  EC50: 3.1 nM
[2]
  DC50: 1.7 nM

## CNc1cc(=O)n(-c2ccnc3c2cc([C@H](C)N2CC=C(c4c(C)cc(C(=O)N5CCC(CN6CCN(Cc7ccc8c(c7)C7(CC7)C(=O)N8C7CCC(=O)NC7=O)CC6)CC5)cc4F)CC2)n3C)cc1F (stereo partly drawn) [Example 3u66, 3-(5′-((4-((1-(3-fluoro-4-(1-((S)-1-(4-(5-fluoro-4-(methylamino)-2-oxopyridin-1 (2H)-yl)-1-methyl-1H-pyrrolo[2,3-b]pyridin-2-yl)ethyl)-1,2,3,6-tetrahydropyridin-4-yl)-5-methylbenzoyl)-piperidin-4-yl)methyl)piperazin-1-yl)methyl)-2′-oxospiro[cyclopropane-1,3′-indolin]-1′-yl)piperidine-2,6-dione]
[1]
  EC50: 4.3 nM
[2]
  DC50: 1.6 nM
